For this test, the target named is T1, human FSH receptor (Homo sapiens, UniProt P23945).
T1 construct: expressed in transfected cells; host or cells: Chinese Hamster Ovary (CHO) cells, stably transfected, cotransfected with CRE/promotor-firefly luciferase reporter
T1 sequence (P23945 18-695): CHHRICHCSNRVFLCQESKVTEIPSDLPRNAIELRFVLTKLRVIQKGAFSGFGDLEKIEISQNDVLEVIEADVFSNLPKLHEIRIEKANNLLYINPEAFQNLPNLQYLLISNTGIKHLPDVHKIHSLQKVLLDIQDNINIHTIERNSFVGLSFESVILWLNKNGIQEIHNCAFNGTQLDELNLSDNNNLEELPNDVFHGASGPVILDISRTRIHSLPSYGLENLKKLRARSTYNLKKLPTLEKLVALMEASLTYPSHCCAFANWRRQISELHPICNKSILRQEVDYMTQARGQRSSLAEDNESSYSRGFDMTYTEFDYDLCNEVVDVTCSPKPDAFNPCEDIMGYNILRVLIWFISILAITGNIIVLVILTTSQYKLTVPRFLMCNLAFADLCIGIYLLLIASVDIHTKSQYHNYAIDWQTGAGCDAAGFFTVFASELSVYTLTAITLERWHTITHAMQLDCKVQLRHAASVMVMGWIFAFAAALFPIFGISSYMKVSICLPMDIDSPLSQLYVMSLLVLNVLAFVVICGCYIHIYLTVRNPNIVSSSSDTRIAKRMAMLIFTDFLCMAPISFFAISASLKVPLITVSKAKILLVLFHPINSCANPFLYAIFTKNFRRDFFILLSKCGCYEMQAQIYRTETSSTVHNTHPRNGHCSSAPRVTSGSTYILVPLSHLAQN
Put plainly: Agonistic activity of compounds at the human FSH receptor expressed in CHO cells, CRE/luciferase reporter (hFSHRago (CHO luc)). In kind it is cell-based. The note with it: CHO cells stably transfected with the human FSH receptor and CRE/firefly luciferase reporter; 4 hours of incubation; half-maximal stimulation relative to the compound's own maximal effect; read-out: hFSHRago (CHO luc) EC50. The source says:
The term EC50 means the concentration of the test compound that elicits half-maximal (50 %) stimulation compared to the compound's maximally attainable effect. The values can be determined e.g. in a cell line transfected with a FSH receptor gene and cotransfected with a cAMP responsive element/promoter directing the expression of a reporter gene. Values can be determined using a software program such as MathIQ (version 2.0, ID Business Solutions Limited).
Agonistic activity of the compounds at the human FSH receptor was determined in Chinese Hamster Ovary (CHO) cells stably transfected with the human FSH receptor and cotransfected with a cAMP responsive element (CRE)/promotor directing the expression of a firefly luciferase reporter gene. Binding of the compounds to the Gs protein-coupled FSH receptor will result in an increase of cAMP, which in turn will induce an increased transactivation of the luciferase reporter. Cells (7,500 cells/well of a 384 well plate) were incubated in Dulbecco' minimal essential F12 modified medium (Invitrogen), supplemented with 1 µg/ml bovine insulin, 5 µg/ml human apo-transferrin, 80 U/ml penicillin G and 80 µg/ml streptomycin with the test compounds (concentration between 0.0316 nM and 10.0 µM) in duplicate in a humidified atmosphere (95%) at 5-7% CO2 and 37°C. The final concentration of DMSO was 1%. After 4 hours of incubation, plates were allowed to adjust to room temperature for 1 hour. Then, Luclite (PerkinElmer) solution was added to the wells and cells were allowed to lyse for at least 1 hour at room temperature. Subsequently, luciferase activity was measured in a luminescence counter. The signal is expressed as counts per second (cps). The EC50 (concentration of the test compound that elicits half-maximal (50 %) luciferase stimulation compared to the compound's maximally attainable effect) and efficacy values (maximal effect of the test compound as percentage of the maximal effect of recombinant human FSH) of the compounds were determined using the software program MathIQ (version 2.0, ID Business Solutions Limited). EC50 data are indicated at the synthesis examples.
Background: A reporter such as luciferase makes a cellular process visible.

The structures appear in SMILES notation. pEC50: −log10 of the molar value.

As usually defined, the pEC50 is the negative decadic logarithm of the EC50, by convention in mol/L. Take `COc1cc2ccn3c(C(=O)N(C)C(C)(C)C)nc(-c4cccs4)c3c2cc1C=C(C)C` [Example 16e, 8-Methoxy-9-(2-methyl-propenyl)-1-thiophen-2-yl-imidazo[5,1-a]isoquinoline-3-carboxylic acid tert-butyl-methyl-amide]: the negative-log EC50 (pEC50) was 8.05.

On to `COc1cc2c(cc1CC(C)C)-c1c(-c3ncco3)nc(C(=O)N(C)C(C)(C)C)n1CC2` [Example 37f, 9-Isobutyl-8-methoxy-1-oxazol-2-yl-5,6-dihydro-imidazo[5,1-a]isoquinoline-3-carboxylic acid tert-butyl-methyl-amide], for which the negative logarithm of the EC50 (pEC50) was 6.42. Then `COc1cc2c(cc1OCCNC(C)=O)-c1c(-c3cccs3)nc(C(=O)N(C)C(C)(C)C)n1CC2` [Example 32, 9-(2-Acetylamino-ethoxy)-8-methoxy-1-thiophen-2-yl-5,6-dihydro-imidazo[5,1-a]isoquinoline-3-carboxylic acid tert-butyl-methyl-amide], with 6.25. The figure for `C=Cc1cc2c(cc1CC(C)C)-c1c(-c3cccs3)nc(C(=O)N(C)C(C)(C)C)n1CC2` [Example 19d, 9-Isobutyl-1-thiophen-2-yl-8-vinyl-5,6-dihydro-imidazo[5,1-a]isoquinoline-3-carboxylic acid tert-butyl-methyl-amide] is 7.12. The figure for `COc1cc2ccn3c(C(=O)N(C)C(C)(C)C)nc(-c4cccs4)c3c2cc1-c1cnn(C)c1` [Example 17b, 8-Methoxy-9-(1-methyl-1H-pyrazol-4-yl)-1-thiophen-2-yl-imidazo[5,1-a]isoquinoline-3-carboxylic acid tert-butyl-methyl-amide] is 7.64. As to `COc1cc2c(cc1OCCN)-c1c(-c3cccs3)nc(C(=O)N(C)C(C)(C)C)n1CC2` [Example 31, 9-(2-Amino-ethoxy)-8-methoxy-1-thiophen-2-yl-5,6-dihydro-imidazo[5,1-a]isoquinoline-3-carboxylic acid tert-butyl-methyl-amide], the pEC50 is 7.03. `COC(=O)NCCOc1cc2c(cc1OC)CCn1c(C(=O)N(C)C(C)(C)C)nc(-c3cccs3)c1-2` [Example 33, {2-[3-(tert-Butyl-methyl-carbamoyl)-8-methoxy-1-thiophen-2-yl-5,6-dihydro-imidazo[5,1-a]isoquinolin-9-yloxy]-ethyl}-carbamic acid methyl ester]: the negative logarithm of the EC50 (pEC50) was 6.85. Then `COc1cc2c(cc1N1CCOCC1)-c1c(-c3cccs3)nc(C(=O)N(C)C(C)(C)C)n1CC2` [Example 45, 8-Methoxy-9-morpholin-4-yl-1-thiophen-2-yl-5,6-dihydro-imidazo[5,1-a]isoquinoline-3-carboxylic acid tert-butyl-methyl-amide], with 6.95; and `CCN(C(=O)c1nc(-c2cccs2)c2n1CCc1cc(OC)c(OC(C)C)cc1-2)C(C)(C)C` [Example 21f, 9-Isopropoxy-8-methoxy-1-thiophen-2-yl-5,6-dihydro-imidazo[5,1-a]isoquinoline-3-carboxylic acid tert-butyl-ethyl-amide], with 9.05. On to `COc1cc2c(cc1OCCN=[N+]=[N-])-c1c(-c3cccs3)nc(C(=O)N(C)C(C)(C)C)n1CC2` [Example 30e, 9-(2-Azido-ethoxy)-8-methoxy-1-thiophen-2-yl-5,6-dihydro-imidazo[5,1-a]isoquinoline-3-carboxylic acid tert-butyl-methyl-amide], for which the negative-log EC50 (pEC50) was 7.82. Then `COc1cc2c(cc1OC)-c1c(-c3ccc(F)cc3)nc(C(=O)N3CCCN(C(C)=O)CC3)n1CC2` [Example 50e, 1-{4-[1-(4-Fluoro-phenyl)-8,9-dimethoxy-5,6-dihydro-imidazo[5,1-a]isoquinoline-3-carbonyl]-[1,4]diazepan-1-yl}-ethanone], with 6.50; and `COc1cc2c(cc1NC(=O)CN1CCOCC1)-c1c(-c3cccs3)nc(C(=O)N(C)C(C)(C)C)n1CC2` [Example 14, 8-Methoxy-9-(2-morpholin-4-yl-acetylamino)-1-thiophen-2-yl-5,6-dihydro-imidazo[5,1-a]isoquinoline-3-carboxylic acid tert-butyl-methyl-amide], with 8.00; and `COc1cc2c(cc1-c1cccc(F)c1)-c1c(-c3cccs3)nc(C(=O)N(C)C(C)(C)C)n1CC2` [Example 2i, 9-(3-Fluoro-phenyl)-8-methoxy-1-thiophen-2-yl-5,6-dihydro-imidazo[5,1-a]isoquinoline-3-carboxylic acid tert-butyl-methyl-amide], with 8.52.

With `COc1cc2c(cc1OC)-c1c(-c3cccs3)nc(C(=O)N3CCCC3C)n1CC2` (stereo not shown) [Example 24c, (2-Methyl-pyrrolidin-1-yl)-(9-methoxy-8-methoxy-1-thiophen-2-yl-5,6-dihydro-imidazo[5,1-a]isoquinolin-3-yl)-methanone], the negative-log EC50 (pEC50) is 6.48. Then `COc1cc2c(cc1-c1c(C)noc1C)-c1c(-c3cccs3)nc(C(=O)N(C)C(C)(C)C)n1CC2` [Example 2m, 9-(3,5-Dimethyl-isoxazol-4-yl)-8-methoxy-1-thiophen-2-yl-5,6-dihydro-imidazo[5,1-a]iso-quinoline-3-carboxylic acid tert-butyl-methyl-amide], with 8.05; and `COc1cc2c(c(F)c1CC(C)C)-c1c(-c3cccs3)nc(C(=O)N(C)C(C)(C)C)n1CC2` [Example 48j, 10-Fluoro-9-isobutyl-8-methoxy-1-thiophen-2-yl-5,6-dihydro-imidazo[5,1-a]isoquinoline-3-carboxylic acid tert-butyl-methyl-amide], with 8.15; and `COc1cc2c(cc1C=C(F)F)-c1c(-c3cccs3)nc(C(=O)N(C)C(C)(C)C)n1CC2` [Example 39, 9-(2,2-Difluoro-vinyl)-8-methoxy-1-thiophen-2-yl-5,6-dihydro-imidazo[5,1-a]isoquinoline-3-carboxylic acid tert-butyl-methyl-amide], with 7.66. Then `COc1cc2c(cc1-c1cccc(-n3cccn3)c1)-c1c(-c3cccs3)nc(C(=O)N(C)C(C)(C)C)n1CC2` [Example 2g, 8-Methoxy-9-(3-pyrazol-1-yl-phenyl)-1-thiophen-2-yl-5,6-dihydro-imidazo[5,1-a]iso-quinoline-3-carboxylic acid tert-butyl-methyl-amide], with 8.70; and `COc1cc2c(cc1CCC(C)(C)O)-c1c(-c3cccs3)nc(C(=O)N(C)C(C)(C)C)n1CC2` [Example 41c, 9-(3-Hydroxy-3-methyl-butyl)-8-methoxy-1-thiophen-2-yl-5,6-dihydro-imidazo[5,1-a]isoquinoline-3-carboxylic acid tert-butyl-methyl-amide], with 6.72; and `COc1cc2c(cc1NC(=O)C(C)O)-c1c(-c3cccs3)nc(C(=O)N(C)C(C)(C)C)n1CC2` (stereo not shown) [Example 7, 9-(2-Hydroxy-propionylamino)-8-methoxy-1-thiophen-2-yl-5,6-dihydro-imidazo[5,1-a]isoquinoline-3-carboxylic acid tert-butyl-methyl-amide], with 7.46.

Regarding `COc1cc2c(cc1-c1cccc(S(C)(=O)=O)c1)-c1c(-c3cccs3)nc(C(=O)N(C)C(C)(C)C)n1CC2` [Example 2p, 9-(3-Methanesulfonyl-phenyl)-8-methoxy-1-thiophen-2-yl-5,6-dihydro-imidazo[5,1-a]iso-quinoline-3-carboxylic acid tert-butyl-methyl-amide], the negative logarithm of the EC50 (pEC50) was 7.82. As for `CCc1cc2c(cc1CC(C)C)-c1c(-c3cccs3)nc(C(=O)N(C)C(C)(C)C)n1CC2` [Example 19e, 8-Ethyl-9-isobutyl-1-thiophen-2-yl-5,6-dihydro-imidazo[5,1-a]isoquinoline-3-carboxylic acid tert-butyl-methyl-amide], the negative-log EC50 (pEC50) was 6.70.

Values taken from patent EP2435433B1, “(DIHYDRO)IMIDAZOISO[5,1-A]QUINOLINES AS FSH RECEPTOR AGONISTS FOR THE TREATMENT OF FERTILITY DISORDERS” (Merck Sharp & Dohme B.V., priority 2009, dated 2010).
